Data reported in patent publication US20260216195A1, “MUTANT-SELECTIVE EGFR INHIBITORS” (Dana-Farber Cancer Institute, Inc., priority 2023, published 2026).

Experiments:
[1] = biological target: EGFR mutant L858R/T790M Ba/F3 cells (Homo sapiens, UniProt P00533, T790M/L858R, cells depend on it); assay: Ba/F3 cell proliferation (Cell Titer Glo), EGFR L858R/T790M; type: cell-based, murine; conditions: 72 hours, read-out: BaF3 cell L858R/T790M
Excerpt: (§1) The EGFR mutant L858R and L858R/T790M Ba/F3 cells have been previously described (Zhou, W., et al. Nature 462, 2009, 1070-1074). All cell lines were maintained in RPMI 1640 (Cellgro; Mediatech Inc., Herndon, CA) supplemented with 10% FBS, 100 units/mL penicillin, 100 units/mL streptomycin. The EGFR 1941R mutation was introduced via site directed mutagenesis using the Quick Change Site-Directed Mutagenesis kit (Stratagene; La Jolla, CA) according to the manufacturer's instructions. All constructs were confirmed by DNA sequencing. The constructs were shuttled into the retroviral vector JP1540 using the Cre-recombination system (Agilent Technologies, Santa Clara, CA). Ba/F3 cells were then infected with retrovirus per standard protocols, as described previously (Zhou, et al, Nature 2009). Stable clones were obtained by selection in puromycin (2 μg/ml).
(§2) Growth and inhibition of growth was assessed by the Cell Titer Glo assay (Promega, Madison, WI) and was performed according to the manufacturer's instructions. The Cell Titer Glo assay is a luminescence-based method used to determine the number of viable cells based on quantitation of the ATP present, which is directly proportional to the amount of metabolically active cells present. Ba/F3 cells of different EGFR genotypes were exposed to the compounds disclosed herein for 72 hours and the number of cells used per experiment was determined empirically as has been previously established (Zhou, et al., Nature 2009). All experimental points were set up in triplicates in 384-well plates and all experiments were repeated at least three times. […] The curves were fitted using a non-linear regression model with a sigmoidal dose response.

[2] = biological target: EGFR mutant L858R Ba/F3 cells (Homo sapiens, UniProt P00533, L858R, cells depend on it); assay: Ba/F3 cell proliferation (Cell Titer Glo), EGFR L858R; type: cell-based, murine; conditions: 72 hours, read-out: BaF3 cell L858R IC50
EGFR mutant L858R Ba/F3 cells, sequence (P00533 whole entry L858R): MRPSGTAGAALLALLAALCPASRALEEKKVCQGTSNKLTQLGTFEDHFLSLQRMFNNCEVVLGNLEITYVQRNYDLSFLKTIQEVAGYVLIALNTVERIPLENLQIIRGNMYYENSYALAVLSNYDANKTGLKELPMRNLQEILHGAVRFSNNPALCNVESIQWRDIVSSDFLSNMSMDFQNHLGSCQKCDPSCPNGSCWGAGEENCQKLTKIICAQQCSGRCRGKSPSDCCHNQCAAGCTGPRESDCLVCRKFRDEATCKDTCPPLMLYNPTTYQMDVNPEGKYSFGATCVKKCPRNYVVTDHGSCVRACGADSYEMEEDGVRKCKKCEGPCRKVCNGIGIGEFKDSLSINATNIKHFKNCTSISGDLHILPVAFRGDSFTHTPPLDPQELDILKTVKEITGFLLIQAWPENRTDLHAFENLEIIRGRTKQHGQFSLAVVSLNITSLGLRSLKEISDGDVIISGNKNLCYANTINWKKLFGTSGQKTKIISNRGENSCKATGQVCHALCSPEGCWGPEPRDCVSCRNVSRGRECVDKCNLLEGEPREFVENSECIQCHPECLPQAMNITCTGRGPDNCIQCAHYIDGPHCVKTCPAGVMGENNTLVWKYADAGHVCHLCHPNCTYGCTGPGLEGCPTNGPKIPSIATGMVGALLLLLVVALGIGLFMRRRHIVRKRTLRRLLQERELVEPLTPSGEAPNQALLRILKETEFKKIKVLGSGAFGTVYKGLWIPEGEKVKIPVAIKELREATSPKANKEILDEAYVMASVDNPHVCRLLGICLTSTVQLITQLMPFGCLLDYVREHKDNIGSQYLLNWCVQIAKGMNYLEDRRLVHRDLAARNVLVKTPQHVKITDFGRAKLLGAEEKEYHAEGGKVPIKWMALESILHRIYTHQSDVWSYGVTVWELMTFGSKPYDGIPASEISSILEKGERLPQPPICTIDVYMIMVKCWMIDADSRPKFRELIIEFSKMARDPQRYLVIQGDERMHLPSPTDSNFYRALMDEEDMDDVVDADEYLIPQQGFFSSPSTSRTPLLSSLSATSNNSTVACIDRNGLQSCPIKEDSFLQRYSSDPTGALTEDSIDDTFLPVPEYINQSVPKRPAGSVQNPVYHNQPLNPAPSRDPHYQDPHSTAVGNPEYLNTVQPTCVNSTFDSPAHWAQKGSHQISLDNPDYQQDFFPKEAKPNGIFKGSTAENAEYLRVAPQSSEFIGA
Excerpt: as §1, §2

EGFR L858R/T790M = EGFR L858R/T790M (Homo sapiens, UniProt P00533, L858R/T790M); assay: HTRF-based EGFR biochemical assay, L858R/T790M enzyme; conditions: L858R/T790M 0.02 nM enzyme, 100 μM ATP, 30 min preincubation, read-out: LRTM enzyme IC50
EGFR L858R/T790M, sequence (P00533 25-1210 T790M/L858R): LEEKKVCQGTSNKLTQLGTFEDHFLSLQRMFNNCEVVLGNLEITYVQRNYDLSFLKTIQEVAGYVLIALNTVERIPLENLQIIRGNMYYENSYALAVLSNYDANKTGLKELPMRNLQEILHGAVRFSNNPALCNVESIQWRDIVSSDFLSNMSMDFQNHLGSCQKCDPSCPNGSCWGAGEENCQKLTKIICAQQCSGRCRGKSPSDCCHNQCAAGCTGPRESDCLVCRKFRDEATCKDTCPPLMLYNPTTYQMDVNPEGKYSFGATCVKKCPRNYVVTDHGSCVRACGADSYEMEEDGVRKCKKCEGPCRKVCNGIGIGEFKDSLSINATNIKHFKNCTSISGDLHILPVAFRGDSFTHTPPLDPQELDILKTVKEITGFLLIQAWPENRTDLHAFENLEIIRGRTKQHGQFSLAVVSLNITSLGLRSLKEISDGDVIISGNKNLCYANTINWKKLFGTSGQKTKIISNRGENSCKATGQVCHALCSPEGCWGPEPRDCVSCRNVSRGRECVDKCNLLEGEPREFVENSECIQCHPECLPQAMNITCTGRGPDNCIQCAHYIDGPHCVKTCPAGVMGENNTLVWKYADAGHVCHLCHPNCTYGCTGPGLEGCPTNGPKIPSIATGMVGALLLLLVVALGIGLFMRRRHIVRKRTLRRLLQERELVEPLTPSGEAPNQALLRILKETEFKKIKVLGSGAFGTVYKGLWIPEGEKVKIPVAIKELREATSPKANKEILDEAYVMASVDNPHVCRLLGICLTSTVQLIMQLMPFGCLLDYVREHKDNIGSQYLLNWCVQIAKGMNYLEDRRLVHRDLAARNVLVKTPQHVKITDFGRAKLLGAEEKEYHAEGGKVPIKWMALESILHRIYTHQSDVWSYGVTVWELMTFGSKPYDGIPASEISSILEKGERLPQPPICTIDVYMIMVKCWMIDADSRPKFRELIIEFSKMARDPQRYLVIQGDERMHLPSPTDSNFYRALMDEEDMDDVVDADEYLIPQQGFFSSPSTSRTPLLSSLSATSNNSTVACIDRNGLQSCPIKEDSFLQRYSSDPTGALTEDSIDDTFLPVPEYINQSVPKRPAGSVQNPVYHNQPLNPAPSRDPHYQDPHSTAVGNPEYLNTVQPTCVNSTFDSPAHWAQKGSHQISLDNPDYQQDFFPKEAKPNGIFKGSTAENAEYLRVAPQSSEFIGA
Description: (§3) EGFR biochemical activity measurements were carried out using the homogeneous time-resolved fluorescence (HTRF) assay (Cisbio). Inhibitors and DMSO normalizations were first dispensed to empty black low-volume 384-well plates (Corning) with D300 digital liquid dispenser (HP). All reactions were carried out at room temperature and solutions were added to plates with a Multidrop Combi Reagent Dispenser (ThermoFisher). The reaction mixture (10 μL final volume) contained 1 μM tyrosine kinase peptide-biotin substrate and mutant EGFR in a reaction buffer (50 mM HEPES pH 7.0, 5 mM MgCl2,1 mM MnCl2, 0.01% BSA, 2 mM TCEP, 0.1 mM NaVO4). Enzyme concentrations were adjusted to accommodate varying kinase activities (L858R 0.1 nM, L858R/T790M 0.02 nM). Enzyme reaction solution (2× concentrations, 5 μL) was added to 384-well plates containing compounds and incubated for 30 mins. Enzyme reactions were initiated with the addition of 5 μL of ATP to a final concentration of 100 μM and reacted for 20 mins. Reactions were quenched with the addition of 10 μL of phospho-tyrosine antibody-Europium(III) cryptate (1-to-180 volume ratio) and Streptavidin-XL665 (46.7 nM) in EDTA-containing detection buffer, then incubated at room temperature for 1 hour, and read with a PHERAstar plate reader (excitation=337 nm, emission=620 nm and 665 nm). IC50 values were determined by inhibition curves (11-point curves from 1.0 μM to 0.130 nM or 23-point curves from 1.0 μM to […]) in triplicate with non-linear least squares fit in GraphPad Prism 7.0d. The data obtained are shown in Table 2 below where “−” is indicative of an IC50 value of >5 nM “+” is indicative of an IC50 value of <5 nM, “++” is indicative of an IC50 value of <1 nM, and “+++” is indicative of an IC50 value of <0.5 nM.

EGFR L858R = EGFR L858R (Homo sapiens, UniProt P00533, L858R); assay: HTRF-based EGFR biochemical assay, L858R enzyme; conditions: L858R 0.1 nM enzyme, 100 μM ATP, 30 min preincubation, read-out: LR enzyme IC50
EGFR L858R, sequence (P00533 25-1210 L858R): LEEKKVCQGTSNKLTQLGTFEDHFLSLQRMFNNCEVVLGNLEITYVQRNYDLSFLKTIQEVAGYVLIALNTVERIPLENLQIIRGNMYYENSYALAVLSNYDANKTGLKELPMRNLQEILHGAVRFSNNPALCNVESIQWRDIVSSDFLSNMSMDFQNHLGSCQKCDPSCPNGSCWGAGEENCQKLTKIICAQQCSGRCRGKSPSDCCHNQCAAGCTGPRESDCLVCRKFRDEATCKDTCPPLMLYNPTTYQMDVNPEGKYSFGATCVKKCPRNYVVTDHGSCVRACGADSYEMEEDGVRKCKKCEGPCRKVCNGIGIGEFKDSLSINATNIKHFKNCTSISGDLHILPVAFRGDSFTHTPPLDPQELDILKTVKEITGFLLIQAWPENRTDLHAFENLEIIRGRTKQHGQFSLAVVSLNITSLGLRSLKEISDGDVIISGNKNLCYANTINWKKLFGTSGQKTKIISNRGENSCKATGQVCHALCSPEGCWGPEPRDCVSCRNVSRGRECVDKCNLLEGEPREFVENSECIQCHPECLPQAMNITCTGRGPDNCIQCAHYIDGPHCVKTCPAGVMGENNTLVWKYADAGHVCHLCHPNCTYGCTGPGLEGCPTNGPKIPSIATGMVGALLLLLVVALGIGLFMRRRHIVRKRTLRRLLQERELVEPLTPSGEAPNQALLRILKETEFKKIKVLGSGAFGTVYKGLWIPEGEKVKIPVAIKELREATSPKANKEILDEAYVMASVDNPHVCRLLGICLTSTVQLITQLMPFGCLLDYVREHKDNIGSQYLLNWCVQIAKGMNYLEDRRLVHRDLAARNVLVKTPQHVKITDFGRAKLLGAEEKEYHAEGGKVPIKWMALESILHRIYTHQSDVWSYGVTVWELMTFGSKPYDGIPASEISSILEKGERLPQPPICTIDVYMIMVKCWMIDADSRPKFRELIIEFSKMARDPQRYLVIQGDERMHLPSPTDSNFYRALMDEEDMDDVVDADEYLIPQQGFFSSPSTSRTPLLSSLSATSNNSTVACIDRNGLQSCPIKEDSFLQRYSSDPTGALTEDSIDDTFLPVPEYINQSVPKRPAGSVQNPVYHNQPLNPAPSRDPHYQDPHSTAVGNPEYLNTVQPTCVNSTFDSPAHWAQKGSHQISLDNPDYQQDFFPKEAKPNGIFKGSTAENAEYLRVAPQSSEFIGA
Description: as §3

EGFR mutant L858R/T790M Ba/F3 cells, sequence (P00533 whole entry T790M/L858R): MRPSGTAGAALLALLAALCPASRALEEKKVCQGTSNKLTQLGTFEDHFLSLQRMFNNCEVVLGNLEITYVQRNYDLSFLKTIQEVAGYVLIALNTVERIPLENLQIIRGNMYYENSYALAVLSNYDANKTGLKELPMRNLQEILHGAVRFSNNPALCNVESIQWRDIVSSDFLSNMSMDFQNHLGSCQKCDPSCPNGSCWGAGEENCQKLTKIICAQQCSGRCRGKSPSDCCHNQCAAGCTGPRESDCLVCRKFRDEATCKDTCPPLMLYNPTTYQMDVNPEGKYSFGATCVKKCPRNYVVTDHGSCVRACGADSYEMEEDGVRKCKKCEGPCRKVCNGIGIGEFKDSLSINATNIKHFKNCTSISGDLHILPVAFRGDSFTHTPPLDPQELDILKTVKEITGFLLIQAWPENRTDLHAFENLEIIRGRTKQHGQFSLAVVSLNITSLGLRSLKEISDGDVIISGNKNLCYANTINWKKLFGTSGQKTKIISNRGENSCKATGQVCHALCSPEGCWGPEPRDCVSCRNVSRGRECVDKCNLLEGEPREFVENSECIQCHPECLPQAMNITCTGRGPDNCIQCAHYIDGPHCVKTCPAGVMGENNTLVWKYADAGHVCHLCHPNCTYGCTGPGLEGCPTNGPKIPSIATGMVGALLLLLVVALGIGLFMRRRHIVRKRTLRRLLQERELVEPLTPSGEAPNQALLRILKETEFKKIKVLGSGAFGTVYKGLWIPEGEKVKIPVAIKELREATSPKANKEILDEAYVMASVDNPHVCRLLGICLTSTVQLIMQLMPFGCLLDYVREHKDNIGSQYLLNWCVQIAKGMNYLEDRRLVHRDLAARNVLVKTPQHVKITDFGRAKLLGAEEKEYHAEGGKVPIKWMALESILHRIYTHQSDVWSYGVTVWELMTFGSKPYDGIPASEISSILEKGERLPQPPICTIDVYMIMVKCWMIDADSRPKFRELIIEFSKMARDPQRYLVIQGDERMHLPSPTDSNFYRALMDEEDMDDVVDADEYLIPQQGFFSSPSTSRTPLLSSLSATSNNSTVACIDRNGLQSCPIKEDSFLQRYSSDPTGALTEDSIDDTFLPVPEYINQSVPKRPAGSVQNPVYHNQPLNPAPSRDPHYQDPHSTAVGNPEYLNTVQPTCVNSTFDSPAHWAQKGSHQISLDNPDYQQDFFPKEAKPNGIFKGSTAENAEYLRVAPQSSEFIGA

Compound	GI50 [1] [nM]	GI50 [2] [nM]	IC50 (EGFR L858R/T790M) [nM]	IC50 (EGFR L858R) [nM]
CN1CCC(c2ccc(-c3cc(F)c4c(=O)n(C(C(=O)Nc5nccs5)c5ncn6c5CCC6)ccc4c3)cc2)CC1 (centres unmarked) [Compound 001, 2-(6,7-Dihydro-5H-pyrrolo[1,2-c]imidazol-1-yl)-2-(8-fluoro-6-(4-(1-methylpiperidin-4-yl)phenyl)-1-oxoisoquinolin-2(1H)-yl)-N-(thiazol-2-yl)acetamide]	< 100	< 500	< 0.5	< 5
CN1CCC(c2ccc(-c3cc(F)c4c(=O)n(C(C(=O)Nc5nccs5)c5ncn6c5C[C@@H](F)C6)ccc4c3)cc2)CC1 (stereo partly drawn) [Compound 002, 2-((R)-6-Fluoro-6,7-dihydro-5H-pyrrolo[1,2-c]imidazol-1-yl)-2-(8-fluoro-6-(4-(1-methylpiperidin-4-yl)phenyl)-1-oxoisoquinolin-2(1H)-yl)-N-(thiazol-2-yl)acetamide]	< 500	< 500	< 1	< 5
CN1CCC(c2ccc(-c3ccc4ncn(C(C(=O)Nc5nccs5)c5ncn6c5CCC6)c(=O)c4c3)cc2)CC1 (centres unmarked) [Compound 005, 2-(6,7-Dihydro-5H-pyrrolo[1,2-c]imidazol-1-yl)-2-(6-(4-(1-methylpiperidin-4-yl)phenyl)-4-oxoquinazolin-3(4H)-yl)-N-(thiazol-2-yl)acetamide]	< 100	< 500	< 0.5	< 1
CN1CCC(c2ccc(-c3ccc4c(c3)C(=O)N(C(C(=O)Nc3nccs3)c3ncn5c3CCC5)CO4)cc2)CC1 (centres unmarked) [Compound 008, 2-(6,7-Dihydro-5H-pyrrolo[1,2-c]imidazol-1-yl)-2-(6-(4-(1-methylpiperidin-4-yl)phenyl)-4-oxo-2H-benzo[e][1,3]oxazin-3(4H)-yl)-N-(thiazol-2-yl)acetamide]	< 100	< 500	< 0.5	< 5

Now from value to molecule:

GI50 [1] [nM]	GI50 [2] [nM]	IC50 (EGFR L858R/T790M) [nM]	IC50 (EGFR L858R) [nM]	Compound
< 100	< 500	< 0.5	< 5	CN1CCC(c2ccc(-c3cc4ccn(C(C(=O)Nc5nccs5)c5ncn6c5CCC6)c(=O)c4s3)cc2)CC1 (centres unmarked) [Compound 003, 2-(6,7-Dihydro-5H-pyrrolo[1,2-c]imidazol-1-yl)-2-(2-(4-(1-methylpiperidin-4-yl)phenyl)-7-oxothieno[2,3-c]pyridin-6(7H)-yl)-N-(thiazol-2-yl)acetamide]
< 500	< 5000	< 0.5	< 5	CN1CCC(c2ccc(-c3cc4ccn(C(C(=O)Nc5nccs5)c5ncn6c5C[C@@H](F)C6)c(=O)c4s3)cc2)CC1 (stereo partly drawn) [Compound 004, 2-((R)-6-Fluoro-6,7-dihydro-5H-pyrrolo[1,2-c]imidazol-1-yl)-2-(2-(4-(1-methylpiperidin-4-yl)phenyl)-7-oxothieno[2,3-c]pyridin-6(7H)-yl)-N-(thiazol-2-yl)acetamide]
< 100	< 500	< 0.5	< 5	CN1CCC(c2ccc(-c3ccc4ncn(C(C(=O)Nc5nccs5)c5ncn6c5CCC6)c(=O)c4c3F)cc2)CC1 (centres unmarked) [Compound 006, 2-(6,7-Dihydro-5H-pyrrolo[1,2-c]imidazol-1-yl)-2-(5-fluoro-6-(4-(1-methylpiperidin-4-yl)phenyl)-4-oxoquinazolin-3(4H)-yl)-N-(thiazol-2-yl)acetamide]
< 5000	< 5000	< 5	> 5	CN1CCN(c2ccc(-c3ccc4ncn(C(C(=O)Nc5nccs5)c5ncn6c5CCC6)c(=O)c4c3)cc2)CC1 (centres unmarked) [Compound 007, 2-(6,7-Dihydro-5H-pyrrolo[1,2-c]imidazol-1-yl)-2-(6-(4-(4-methylpiperazin-1-yl)phenyl)-4-oxoquinazolin-3(4H)-yl)-N-(thiazol-2-yl)acetamide]
